# Test results taken from publication PMC9023544, “Ketone-selenoesters as potential anticancer and multidrug resistance modulation agents in 2D and 3D ovarian and breast cancer in vitro models” (Scientific Reports, 2022).
# How the values were obtained:
# Format in all cases: cell-based, human
# [1] = tested on: HOC/ADR (sub-line resistant to Adriamycin, A2780/ADR); test: Cytotoxic activity, 2D, resazurin, 72 h; settings: for IC50 / IC10: Homo sapiens, A2780 ADR, 72 h; for IC50: read-out: HOC/ADR IC50; for IC10: read-out: IC10 of compounds; for SI HEK293/HOC/ADR: IC50 HEK293 / IC50 HOC/ADR; for CS (collateral sensitivity index): IC50 HOC / IC50 HOC/ADR
# Procedure: (§1) The cytotoxic potential of selenoesters was tested on several cancer cell lines—HOC (human parental ovarian adenocarcinoma, HOC, A2780, Sigma-Aldrich), HOC/ADR (sub-line resistant to Adriamycin, A2780/ADR, Sigma-Aldrich), MCF-7 (human breast adenocarcinoma, ATCC®, HTB-22TM), MCF-7/PAX (resistant sub-line established by gradual adaptation of parental cells to increased concentration of paclitaxel; kindly provided by Division of Cell and Molecular Biology, Third Faculty of Medicine, Charles University, Czech Republic) and on one non-cancerous cell line—HEK293 (human embryonic kidney cell line, Leibniz Institute, DSMZ-German Collection of Microorganisms and Cell Cultures GmbH). All mentioned cell lines were authenticated using short tandem repeat (STR) profiling. Cell lines were cultivated in DMEM medium (10% FBS, 1× antibiotic antimycotic solution), except for HEK293 cell line which was cultivated without antibiotics. In case of the resistant cell lines, the medium was supplemented with a required concentration of cytostatics to maintain resistance (HOC/ADR—100 nM Adriamycin; MCF-7/PAX—300 nM paclitaxel). All cells were cultivated in a CO2 incubator (5% CO2, 37 °C, Thermo Fisher Scientific).
# (§2) For the experiment, the cells at passage number 5–20 were seeded at a 1 × 10^5 cells/mL concentration into 96-well plates to 100 µL final volume. The final concentration range of the compounds was 0.63–20 µM. After an incubation of 72 h, the plates were washed 1× with PBS and resazurin solution (0.03 mg/mL in 1× PBS) was added. After 1 h of incubation, the fluorescence signal was recorded (ex./em. 560/590 nm).
# (§3) The selectivity index (SI) was determined as the ratio of IC50 value for the non-cancerous cells to IC50 for the cancer cell line. For resistant cell lines, the collateral sensitivity (CS) was calculated as the ratio of IC50 value in sensitive tumour cells to IC50 in the resistant cancer cell line. In both cases, the selectivity is considered as: (1) strongly selective when SI or CS value is above 6, (2) moderately selective when SI or CS is between 3 and 6, (3) slightly selective when SI or CS is between 1 and 3 and (4) non-selective when SI or CS is less than 1[23].
# [2] = tested on: MCF-7/PAX (paclitaxel-resistant sub-line); test: Cytotoxic activity, 2D, resazurin, 72 h; settings: for IC50: Homo sapiens, MCF7, 72 h, read-out: MCF-7/PAX IC50; for SI HEK293/MC7-7/PAX: IC50 HEK293 / IC50 MCF-7/PAX; for CS (collateral sensitivity index): IC50 MCF-7 / IC50 MCF-7/PAX; for IC10 of compounds: MCF-7/PAX
# Procedure: as §1, §2, §3
# [3] = tested on: HOC; test: Oxidation stress (ROS), Muse Oxidative Stress Kit; settings: 1 µM (DMSO 5% V/V), 24 h
# Procedure: Selenoesters (K3, K4, K7) were tested for their ability to generate reactive oxygen species (ROS). HOC was exposed to selenoesters in concentration of 1 µM for 24 h. DMSO (5% V/V) was used as a positive control. The required volume of DMSO (1% V/V) was added to untreated cells. ROS are essential biomolecules in cellular regulation as a part of the defence mechanisms. On the other hand, their participation in cell signalling may affect apoptosis and other death pathways. In the assay, dihydroethidium (DHE) reacts with superoxide anions by forming DNA-binding fluorophore ethidium bromide. Based on fluorescence, the cell population can be distinguished into ROS negative and ROS positive cells containing oxygen radicals.
# To determine the oxidation stress potential of selected selenoesters, HOC were seeded into 24-well plates at a density 2 × 10^5 cells/mL for 24 h according to the above mentioned procedure. Afterwards, the plates were washed 1 ×with PBS and fresh DMEM medium containing compounds K3, K4, K7 (final concentration—1 µM) was added for 24 h, except for the positive and negative control. […] as the oxidation stress inductor. After incubation, the cells were washed 1× with PBS and released from the surface by using a trypsin–EDTA solution. After trypsin inhibition by medium addition, the cell suspensions were centrifuged (100×g, 5 min, 25 °C), supernatants were removed, and cell pellets resuspended in 1× assay buffer. All reagents were prepared immediately before use. Afterwards, 10 µL of the cell suspension were mixed with 190 µL of working solution (Muse Oxidative stress reagent) and stained for 30 min at 37 °C. Subsequently, the […] were analysed by Guava Muse Cell Analyzer. Oxidation stress detection was performed following the instructions provided by the manufacturer.
# [4] = tested on: MCF-7/PAX spheroids; test: Sensitization of resistant 3D spheroids to paclitaxel; settings: paclitaxel IC50 / paclitaxel + selenoester IC50; K3 3 µM, K4 3 µM, K7 5 µM; 72 h
# Procedure: In the previous section, the cytotoxic activity of selenoesters was determined against several 3D models of sensitive and resistant cell lines. Subsequently, the selenoesters were tested for their potential to sensitize the drug-resistant HOC/ADR and MCF-7/PAX spheroids. Mature 72 h old spheroids were incubated with the non-toxic concentration of selenoesters with Adriamycin or paclitaxel (concentration range 0.6–80 µM) for HOC/ADR or MCF-7/PAX, respectively (Table 8). After another 72 h incubation, the sensitization rate (fold change) was evaluated. […] The highest sensitization rate of ovarian spheroids (HOC/ADR) was induced by 5 µM K4, followed by 5 µM K7, and 3 µM K3.
# To determine the sensitization potential of compounds, HOC/ADR and MCF-7/PAX were seeded into the ultra-low attachment 96-well plates (Sigma-Aldrich) at a cell density 0.5 × 10^5 cells/mL. After 3 days of spheroid formation, spheroids were carefully washed once with PBS and fresh DMEM medium (99 µL) containing the appropriate concentration of compounds K3, K4, K7 was added. Using a binary serial compound dilution, the concentration range of both cytostatics was prepared in the new 96-well plates (0.06–8 mM). After 1 µL transfer of cytostatics into the corresponding cell line, the final concentration range were 0.6–80 µM. The required volume of DMSO (1% V/V) was added to the positive control. After an incubation of 72 h, 100 µL of CellTiter-Glo 3D Reagent (Promega) was added to each well. Plates with spheroids were incubated for 25 min at room temperature. Afterwards, the luminescent signal was recorded.
SMILES,IC50 [1] [nM],IC10 [1] [nM],SI HEK293/HOC/ADR [1],CS (collateral sensitivity index) [1],IC50 [2] [nM],SI HEK293/MC7-7/PAX [2],CS (collateral sensitivity index) [2],IC10 of compounds [2] [nM],ROS(+) cells [3] [%],ROS(−) cells [3] [%],MCF-7/PAX Fold change (3D) [4]
CC(=O)C[Se]C(=O)c1ccc(Br)cc1 [K3],2600 ± 100,2000,0.9 ± 0.0,0.7 ± 0.1,2100 ± 100,1.1 ± 0.1,1.0 ± 0.3,1200,29.1 ± 4.2,70.8 ± 4.2,(0.9 ± 0.0)×
CC(=O)C[Se]C(=O)c1ccccc1C(F)(F)F [K4],3600 ± 100,2900,1.5 ± 0.2,0.6 ± 0.0,3300 ± 300,1.6 ± 0.2,0.6 ± 0.0,1800,14.5 ± 1.5,85.5 ± 1.6,(1.0 ± 0.1)×
CC(=O)C[Se]C(=O)c1ccc(C(C)(C)C)cc1 [K7],3100 ± 300,1800,0.5 ± 0.1,0.4 ± 0.1,2400 ± 100,0.6 ± 0.1,0.8 ± 0.1,1300,22.3 ± 0.4,77.7 ± 0.4,(1.1 ± 0.1)×
